Results on 2 molecules are retold here after patent US8969572B2, “Process for preparing tetrazole-substituted anthranilamide derivatives and novel crystal polymorphs of these derivatives” (Bayer Cropscience AG, priority 2010, dated 2015).

The conditions of data set [1]: cited from earlier work.
Data set [2] is described as follows: thermodynamic stability of the crystal polymorph. Format: physicochemical. The text has this: The compound of the formula (I-1) is known from WO2010/069502. To date, only one crystal form of the compound 1-(3-chloropyridin-2-yl)-N-[4-cyano-2-methyl-6-(methylcarbamoyl)phenyl]-3-{[5-(trifluoromethyl)-2H-tetrazol-2-yl]methyl}-1H-pyrazole-5-carboxamide of the formula (I-1) was known, which is referred to hereinafter as polymorph A. Polymorph A has a characteristic x-ray powder diffractogram, Raman spectrum and IR spectrum (Tab. 1-2, FIGS. 2, 3, 5).

By pKa is commonly meant the negative logarithm of the acid dissociation constant. In the case of `FC(F)(F)c1nnn[nH]1` [5-Trifluoromethyltetrazole], the pKa in data set [1] was 1.14.
With `CNC(=O)c1cc(C#N)cc(C)c1NC(=O)c1cc(Cn2nnc(C(F)(F)F)n2)nn1-c1ncccc1Cl` [Polymorph A, 1-(3-chloropyridin-2-yl)-N-[4-cyano-2-methyl-6-(methylcarbamoyl)phenyl]-3-{[5-(trifluoromethyl)-2H-tetrazol-2-yl]methyl}-1H-pyrazole-5-carboxamide], the “thermodynamic stability of crystal polymorph” value in data set [2] is “thermodynamically metastable”.
